For data set [1], the system named is Staphylococcus epidermidis. Nature of the data set: Antimicrobial activity against Staphylococcus epidermidis PP62A after 16 to 20 hrs by broth microdilution method. The format is functional.
In a further data set the test system is Enterococcus faecalis. Nature of the data set: Antimicrobial activity against Enterococcus faecalis ATCC 29212 after 16 to 20 hrs by broth microdilution method. Format: functional. (In general: Broth dilution looks for growth in wells or tubes with falling amounts of substance.)
A further data set concerns Enterococcus faecium. Kind of data set: Antimicrobial activity against Enterococcus faecium DSMZ 20477 after 16 to 20 hrs by broth microdilution method. Format: functional.
The subject of data set [2] is Plasmodium falciparum. Nature of the data set: Antimalarial activity against chloroquine-sensitive Plasmodium falciparum 3D7 after 72 hrs by NBT based LDH assay. As to conditions: 3D7, 72 h. Format: functional.
A further data set has as its system Klebsiella pneumoniae. Nature of the data set: Antimicrobial activity against Klebsiella pneumoniae ATCC 13883 after 16 to 20 hrs by broth microdilution method. Format: functional.
A further data set concerns Pseudomonas aeruginosa. Nature of the data set: Antimicrobial activity against Pseudomonas aeruginosa ATCC 27853 after 16 to 20 hrs by broth microdilution method. Format: functional.
A further data set deals with Escherichia coli. Kind of data set: Antimicrobial activity against Escherichia coli ATCC 25922 after 16 to 20 hrs by broth microdilution method. The format is functional.
In data set [3] the test system is Plasmodium falciparum. Nature of the data set: Antimalarial activity against chloroquine-resistant Plasmodium falciparum Dd2 after 72 hrs by NBT based LDH assay. Format: functional. As to conditions: Dd2, 72 h.
A further data set deals with Streptococcus pneumoniae. Nature of the data set: Antimicrobial activity against Streptococcus pneumoniae serotype 19A after 16 to 20 hrs by broth microdilution method. The format is functional.
Data set [4] is described as follows: Induction of bulk conductivity in soybean asolectin planar lipid bilayers assessed as residual conductance of black lipid bilayer at 500 nM at pH 8.
For the next data set, the system named is Proteus mirabilis. Nature of the data set: Antimicrobial activity against Proteus mirabilis ATCC 7002 after 16 to 20 hrs by broth microdilution method. The format is functional.
The next data set has as its system Staphylococcus aureus. Nature of the data set: Antimicrobial activity against methicillin-resistant Staphylococcus aureus ATCC 43300 after 16 to 20 hrs by broth microdilution method. The format is functional.
A short description of data set [5]: Induction of bulk conductivity in soybean asolectin planar lipid bilayers assessed as residual conductance of black lipid bilayer at 1 nM at pH 8.
Data set [6] can be described thus: Hemolytic activity against human erythrocytes at 20 to 140 uM after 30 mins. Format: ADME, cell-based. As to conditions: erythrocyte, 0.5 h.
Data set [7] can be described thus: Induction of bulk conductivity in soybean asolectin planar lipid bilayers assessed as residual conductance of black lipid bilayer at 0.5 nM at pH 8.

≈ marks a conversion by molar mass, not a printed value. Where a SMILES comes first, the peptide text is derived from it. [ ]: non-standard residue; d: D form. The star is where a group is joined. NHCH2CH2OH = OCCN*; For = O=C*

As a reminder, the MIC is the lowest concentration that inhibits growth of the organism. A high value points to weaker potency. In general, IC50 refers to the concentration needed to halve the response being measured. Lower therefore signals inhibition by little substance.

On to `CC(C)C[C@H]1NC(=O)[C@H](C)NC(=O)CNC(=O)[C@H](C(C)C)NC(=O)CCSSCCNC(=O)[C@H](Cc2c[nH]c3ccccc23)NC(=O)[C@@H](CC(C)C)NC(=O)[C@H](Cc2c[nH]c3ccccc23)NC(=O)[C@@H](CC(C)C)NC(=O)[C@H](Cc2c[nH]c3ccccc23)NC(=O)[C@@H](CC(C)C)NC(=O)[C@H](Cc2c[nH]c3ccccc23)NC(=O)[C@@H](C(C)C)NC(=O)[C@H](C(C)C)NC(=O)[C@@H](C(C)C)NC(=O)[C@H](C)NC(=O)[C@@H](CC(C)C)NC(=O)[C@H](C)NC(=O)CNC(=O)[C@H](C(C)C)NC(=O)CCSSCCNC(=O)[C@H](Cc2c[nH]c3ccccc23)NC(=O)[C@@H](CC(C)C)NC(=O)[C@H](Cc2c[nH]c3ccccc23)NC(=O)[C@@H](CC(C)C)NC(=O)[C@H](Cc2c[nH]c3ccccc23)NC(=O)[C@@H](CC(C)C)NC(=O)[C@H](Cc2c[nH]c3ccccc23)NC(=O)[C@@H](C(C)C)NC(=O)[C@H](C(C)C)NC(=O)[C@@H](C(C)C)NC(=O)[C@H](C)NC1=O`, for which the MIC (in data set [1]; against Enterococcus faecalis; with Enterococcus faecium; with Klebsiella pneumoniae; in the data set with Pseudomonas aeruginosa; against Escherichia coli) was more than 64 µg/mL throughout. Further, the MIC against Streptococcus pneumoniae, against Proteus mirabilis and with Staphylococcus aureus was more than 64 µg/mL each time. Also, the IC50 with Plasmodium falciparum [2] was found to be 2.9 nM; in the data set with Plasmodium falciparum [3], 2.7 nM. The Activity in [4] was less than 0.3 uS.

For `CC(C)C[C@@H](NC(=O)[C@H](C)NC(=O)CNC(=O)[C@@H](NC(=O)CCS)C(C)C)C(=O)N[C@@H](C)C(=O)N[C@@H](C(=O)N[C@H](C(=O)N[C@@H](C(=O)N[C@@H](Cc1c[nH]c2ccccc12)C(=O)N[C@H](CC(C)C)C(=O)N[C@@H](Cc1c[nH]c2ccccc12)C(=O)N[C@H](CC(C)C)C(=O)N[C@@H](Cc1c[nH]c2ccccc12)C(=O)N[C@H](CC(C)C)C(=O)N[C@@H](Cc1c[nH]c2ccccc12)C(=O)NCCS)C(C)C)C(C)C)C(C)C`, the MIC (in data set [1]; in the data set with Enterococcus faecalis; against Enterococcus faecium; with Klebsiella pneumoniae; against Pseudomonas aeruginosa; in the data set with Escherichia coli) was more than 64 µg/mL in each case. Moreover, the MIC in the data set with Streptococcus pneumoniae, against Proteus mirabilis and with Staphylococcus aureus was more than 64 µg/mL throughout. For the same molecule, the Activity was less than 0.3 uS in [5] and 0.3 uS in data set [4].

For the molecule `CC(C)C[C@@H](NC(=O)[C@H](C)NC(=O)CNC(=O)[C@@H](NC=O)C(C)C)C(=O)N[C@@H](C)C(=O)N[C@@H](C(=O)N[C@H](C(=O)N[C@@H](C(=O)N[C@@H](Cc1c[nH]c2ccccc12)C(=O)N[C@H](CC(C)C)C(=O)N[C@@H](Cc1c[nH]c2ccccc12)C(=O)N[C@H](CC(C)C)C(=O)N[C@@H](Cc1c[nH]c2ccccc12)C(=O)N[C@H](CC(C)C)C(=O)N[C@@H](Cc1c[nH]c2ccccc12)C(=O)NCCO)C(C)C)C(C)C)C(C)C` (For-VGA[dL]A[dV]V[dV]W[dL]W[dL]W[dL]W-NHCH2CH2OH), the MIC is 0.5 µg/mL (≈ 0.266 µM) in data set [1]; 1 µg/mL (≈ 0.531 µM) against Enterococcus faecalis; 2 µg/mL (≈ 1.06 µM) against Enterococcus faecium; more than 64 µg/mL against Klebsiella pneumoniae; more than 64 µg/mL with Pseudomonas aeruginosa; more than 64 µg/mL in the data set with Escherichia coli. Also, the MIC in the data set on Streptococcus pneumoniae was 0.05 µg/mL (≈ 0.0266 µM); in the data set with Proteus mirabilis, more than 64 µg/mL; in the data set with Staphylococcus aureus, 64 µg/mL (≈ 34 µM). Moreover, the Activity entry is “Toxic” in data set [6] and more than 50 uS in [7]. The results for the IC50 in the data set with Plasmodium falciparum [2] and in the data set on Plasmodium falciparum [3] were 0.05 nM and 0.014 nM, respectively.

Regarding `CC(C)C[C@@H](NC(=O)[C@H](C)NC(=O)CNC(=O)[C@@H](NC(=O)CCSSc1ccc([N+](=O)[O-])c(C(=O)O)c1)C(C)C)C(=O)N[C@@H](C)C(=O)N[C@@H](C(=O)N[C@H](C(=O)N[C@@H](C(=O)N[C@@H](Cc1c[nH]c2ccccc12)C(=O)N[C@H](CC(C)C)C(=O)N[C@@H](Cc1c[nH]c2ccccc12)C(=O)N[C@H](CC(C)C)C(=O)N[C@@H](Cc1c[nH]c2ccccc12)C(=O)N[C@H](CC(C)C)C(=O)N[C@@H](Cc1c[nH]c2ccccc12)C(=O)NCCO)C(C)C)C(C)C)C(C)C`, the MIC in data set [1] was 1 µg/mL (≈ 0.467 µM); in the data set with Enterococcus faecalis, 1 µg/mL (≈ 0.467 µM); against Enterococcus faecium, 0.5 µg/mL (≈ 0.234 µM); in the data set on Klebsiella pneumoniae it was more than 64 µg/mL; with Pseudomonas aeruginosa it was more than 64 µg/mL; with Escherichia coli it was more than 64 µg/mL. Besides, the minimal inhibitory concentration (MIC) against Streptococcus pneumoniae, with Proteus mirabilis and in the data set on Staphylococcus aureus was more than 64 µg/mL throughout. Moreover, the Activity in data set [5] amounted to 0.2 uS; in [4], 115 uS.

Take `CC[C@H]1OC(=O)[C@H](C)[C@@H](O[C@H]2C[C@@](C)(OC)[C@@H](O)[C@H](C)O2)[C@H](C)[C@@H](O[C@@H]2O[C@H](C)C[C@H](N(C)C)[C@H]2O)[C@](C)(O)C[C@@H](C)C(=O)[C@H](C)[C@@H](O)[C@]1(C)O` [ERYTHROMYCIN]: the MIC in [1] was more than 64 µg/mL; in the data set with Enterococcus faecalis it was 1 µg/mL (≈ 1.36 µM); in the data set on Enterococcus faecium it was 2 to 4 µg/mL (≈ 2.73 to 5.45 µM); with Klebsiella pneumoniae, more than 64 µg/mL; against Pseudomonas aeruginosa, more than 64 µg/mL; in the data set on Escherichia coli it was more than 32 µg/mL. Further, the MIC is more than 64 µg/mL against Streptococcus pneumoniae, more than 64 µg/mL with Proteus mirabilis and 0.5 µg/mL (≈ 0.681 µM) in the data set with Staphylococcus aureus.

In the case of `CC(=O)N[C@H](C(=O)NCC(=O)N[C@@H](C)C(=O)N[C@H](CC(C)C)C(=O)N[C@@H](C)C(=O)N[C@@H](C(=O)N[C@H](C(=O)N[C@@H](C(=O)N[C@@H](Cc1c[nH]c2ccccc12)C(=O)N[C@H](CC(C)C)C(=O)N[C@@H](Cc1c[nH]c2ccccc12)C(=O)N[C@H](CC(C)C)C(=O)N[C@@H](Cc1c[nH]c2ccccc12)C(=O)N[C@H](CC(C)C)C(=O)N[C@@H](Cc1c[nH]c2ccccc12)C(=O)NCCS)C(C)C)C(C)C)C(C)C)C(C)C`, the MIC (in data set [1]; with Enterococcus faecalis; in the data set with Enterococcus faecium; in the data set on Klebsiella pneumoniae; in the data set on Pseudomonas aeruginosa; in the data set with Escherichia coli) was more than 64 µg/mL each time. The MIC was 0.05 µg/mL (≈ 0.0261 µM) in the data set with Streptococcus pneumoniae, more than 64 µg/mL in the data set on Proteus mirabilis and more than 64 µg/mL with Staphylococcus aureus. The figures for the IC50 in the data set with Plasmodium falciparum [2] and in the data set on Plasmodium falciparum [3] were 5.5 nM and 8 nM, respectively. In addition, the figures for the Activity in data set [7] and in data set [4] were 1.9 uS and 93 uS, respectively.

For `CC(C)C[C@@H](NC(=O)[C@H](C)NC(=O)CNC(=O)[C@@H](NC(=O)CCS)C(C)C)C(=O)N[C@@H](C)C(=O)N[C@@H](C(=O)N[C@H](C(=O)N[C@@H](C(=O)N[C@@H](Cc1c[nH]c2ccccc12)C(=O)N[C@H](CC(C)C)C(=O)N[C@@H](Cc1c[nH]c2ccccc12)C(=O)N[C@H](CC(C)C)C(=O)N[C@@H](Cc1c[nH]c2ccccc12)C(=O)N[C@H](CC(C)C)C(=O)N[C@@H](Cc1c[nH]c2ccccc12)C(=O)NCCO)C(C)C)C(C)C)C(C)C`, the Activity in [5] was found to be 0.7 uS; in data set [4] it was 42 uS. The MIC with Escherichia coli was more than 64 µg/mL.
